Reference: patent publication US10508120B2, “TYK2 inhibitors and uses thereof” (Nimbus Lakshmi, Inc., priority 2017, dated 2019)
Where two headings read alike, the source gives them in different places.

Assays:
Tyk2 kinase domain (DH1) = Tyk2 kinase domain (DH1) (Homo sapiens (Human), UniProt P29597); assay: Tyk2 Radioactive Kinase Assay; assay type: biochemical; details: for inhibition at 10 µM: read-out: Tyk2 JH1% Inhibition @ 10 μM
Outline: (§1)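 Compounds were tested at a single concentration of 10 μM in a radiometric kinase format against each isolated kinase domain. Activity is reported as percent inhibition at that concentration.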

[1] = biological target: human TYK2 (JH2domain-pseudokinase) (Homo sapiens (Human), UniProt P29597); assay: TYK2 JH2 Domain Binding Assay (KINOMEscan)
Chain of human TYK2 (JH2domain-pseudokinase) (P29597 556-888): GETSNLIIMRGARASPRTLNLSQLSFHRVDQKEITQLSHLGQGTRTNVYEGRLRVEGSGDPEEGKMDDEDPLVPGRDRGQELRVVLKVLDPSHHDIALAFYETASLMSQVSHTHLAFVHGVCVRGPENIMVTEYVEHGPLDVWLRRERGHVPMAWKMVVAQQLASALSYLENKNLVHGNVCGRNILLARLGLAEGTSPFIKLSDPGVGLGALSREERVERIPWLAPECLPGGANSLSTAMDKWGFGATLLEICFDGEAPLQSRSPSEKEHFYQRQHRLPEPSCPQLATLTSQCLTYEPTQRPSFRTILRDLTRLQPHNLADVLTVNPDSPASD
Outline: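 The construct was human TYK2 G556–D888 fused to the NFkB DNA-binding domain and expressed in HEK293 cells; unpurified extract was incubated with compound and liganded beads for 1 hour at room temperature.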

JAK2 kinase domain (JH1) = JAK2 kinase domain (JH1) (Homo sapiens (Human), UniProt O60674); assay: JAK2 Radioactive Kinase Assay; assay type: biochemical; details: for inhibition at 10 µM: read-out: JAK2 JH1% Inhibition @ 10 μM
Chain of JAK2 kinase domain (JH1) (O60674 849-1124): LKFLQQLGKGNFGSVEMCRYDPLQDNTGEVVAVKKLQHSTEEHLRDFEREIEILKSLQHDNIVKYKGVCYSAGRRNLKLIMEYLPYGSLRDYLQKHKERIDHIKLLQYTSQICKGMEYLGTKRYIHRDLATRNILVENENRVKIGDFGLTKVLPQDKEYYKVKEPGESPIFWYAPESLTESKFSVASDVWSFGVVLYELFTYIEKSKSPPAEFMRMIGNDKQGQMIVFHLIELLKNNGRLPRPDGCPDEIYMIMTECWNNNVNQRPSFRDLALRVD
Outline: as §1

[2] = biological target: JAK2/JAK2 homdimeric complex (Homo sapiens (Human), UniProt O60674); assay: GM-CSF Induced pSTAT5 in Human PBMC; assay type: cell-based; details: GM-CSF 5 ng/mL for 20 minutes, pSTAT5 by MSD, read-out: PBMC_GMCSF_pSTAT5 IC50
Chain of JAK2/JAK2 homdimeric complex (O60674 whole entry): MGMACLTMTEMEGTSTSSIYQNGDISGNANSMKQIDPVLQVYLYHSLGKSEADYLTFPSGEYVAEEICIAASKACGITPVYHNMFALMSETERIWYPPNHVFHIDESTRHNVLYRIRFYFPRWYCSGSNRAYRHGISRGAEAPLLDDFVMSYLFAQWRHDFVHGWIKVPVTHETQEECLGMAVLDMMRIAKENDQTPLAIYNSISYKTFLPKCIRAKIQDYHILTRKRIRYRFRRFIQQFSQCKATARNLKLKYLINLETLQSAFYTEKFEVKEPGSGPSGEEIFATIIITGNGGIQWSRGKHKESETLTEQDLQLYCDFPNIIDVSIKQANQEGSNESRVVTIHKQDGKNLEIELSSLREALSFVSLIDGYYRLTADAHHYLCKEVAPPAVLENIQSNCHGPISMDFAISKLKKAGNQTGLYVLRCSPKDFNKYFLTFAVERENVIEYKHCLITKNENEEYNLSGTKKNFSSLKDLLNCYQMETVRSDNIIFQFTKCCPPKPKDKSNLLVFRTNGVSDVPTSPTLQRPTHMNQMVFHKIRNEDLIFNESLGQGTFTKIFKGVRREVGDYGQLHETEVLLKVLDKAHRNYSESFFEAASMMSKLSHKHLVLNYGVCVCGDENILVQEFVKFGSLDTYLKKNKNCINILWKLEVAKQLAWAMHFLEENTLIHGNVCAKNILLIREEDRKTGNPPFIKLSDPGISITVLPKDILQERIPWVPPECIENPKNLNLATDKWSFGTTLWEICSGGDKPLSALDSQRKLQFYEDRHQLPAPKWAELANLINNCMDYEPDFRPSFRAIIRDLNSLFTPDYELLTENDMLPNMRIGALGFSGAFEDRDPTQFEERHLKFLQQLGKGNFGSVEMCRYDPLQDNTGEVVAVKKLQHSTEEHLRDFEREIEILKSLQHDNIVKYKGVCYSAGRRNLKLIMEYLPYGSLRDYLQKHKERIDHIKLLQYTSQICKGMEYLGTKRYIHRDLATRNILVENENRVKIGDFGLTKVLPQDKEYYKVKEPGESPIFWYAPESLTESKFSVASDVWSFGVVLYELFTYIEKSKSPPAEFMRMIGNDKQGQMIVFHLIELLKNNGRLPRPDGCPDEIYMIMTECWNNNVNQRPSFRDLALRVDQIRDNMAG
Chain of JAK2/JAK2 homdimeric complex (P32927 17-897 partner): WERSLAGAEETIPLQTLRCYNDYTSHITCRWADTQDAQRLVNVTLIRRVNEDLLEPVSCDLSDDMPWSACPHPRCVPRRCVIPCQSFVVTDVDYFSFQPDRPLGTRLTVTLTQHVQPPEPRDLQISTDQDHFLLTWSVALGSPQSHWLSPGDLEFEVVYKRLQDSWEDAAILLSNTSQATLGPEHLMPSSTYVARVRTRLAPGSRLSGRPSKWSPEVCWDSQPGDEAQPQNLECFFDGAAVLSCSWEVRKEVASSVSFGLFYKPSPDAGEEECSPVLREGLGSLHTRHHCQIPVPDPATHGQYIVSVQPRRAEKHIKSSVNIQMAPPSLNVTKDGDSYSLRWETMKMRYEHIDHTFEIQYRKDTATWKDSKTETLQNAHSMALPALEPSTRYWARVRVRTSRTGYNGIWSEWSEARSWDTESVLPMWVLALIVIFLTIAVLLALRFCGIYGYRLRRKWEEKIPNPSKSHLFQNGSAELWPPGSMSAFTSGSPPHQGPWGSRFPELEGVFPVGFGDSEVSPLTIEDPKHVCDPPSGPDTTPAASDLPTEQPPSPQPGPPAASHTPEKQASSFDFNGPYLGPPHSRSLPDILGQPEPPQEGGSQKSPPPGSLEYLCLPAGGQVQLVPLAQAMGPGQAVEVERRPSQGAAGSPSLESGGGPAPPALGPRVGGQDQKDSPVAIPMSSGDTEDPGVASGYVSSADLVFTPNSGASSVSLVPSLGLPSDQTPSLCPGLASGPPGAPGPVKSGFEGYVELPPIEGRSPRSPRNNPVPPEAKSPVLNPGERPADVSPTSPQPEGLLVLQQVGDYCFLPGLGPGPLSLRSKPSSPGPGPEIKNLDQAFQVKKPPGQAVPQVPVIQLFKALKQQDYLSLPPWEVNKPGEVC

[3] = biological target: Tyk2/JAK2 (heterodimeric complex) (Homo sapiens (Human), UniProt P29597); assay: IL-12 Induced pSTAT4 in Human PBMC; assay type: cell-based; details: 1.7 ng/mL IL-12
Chain of Tyk2/JAK2 (heterodimeric complex) (P29597 whole entry, other chains not shown): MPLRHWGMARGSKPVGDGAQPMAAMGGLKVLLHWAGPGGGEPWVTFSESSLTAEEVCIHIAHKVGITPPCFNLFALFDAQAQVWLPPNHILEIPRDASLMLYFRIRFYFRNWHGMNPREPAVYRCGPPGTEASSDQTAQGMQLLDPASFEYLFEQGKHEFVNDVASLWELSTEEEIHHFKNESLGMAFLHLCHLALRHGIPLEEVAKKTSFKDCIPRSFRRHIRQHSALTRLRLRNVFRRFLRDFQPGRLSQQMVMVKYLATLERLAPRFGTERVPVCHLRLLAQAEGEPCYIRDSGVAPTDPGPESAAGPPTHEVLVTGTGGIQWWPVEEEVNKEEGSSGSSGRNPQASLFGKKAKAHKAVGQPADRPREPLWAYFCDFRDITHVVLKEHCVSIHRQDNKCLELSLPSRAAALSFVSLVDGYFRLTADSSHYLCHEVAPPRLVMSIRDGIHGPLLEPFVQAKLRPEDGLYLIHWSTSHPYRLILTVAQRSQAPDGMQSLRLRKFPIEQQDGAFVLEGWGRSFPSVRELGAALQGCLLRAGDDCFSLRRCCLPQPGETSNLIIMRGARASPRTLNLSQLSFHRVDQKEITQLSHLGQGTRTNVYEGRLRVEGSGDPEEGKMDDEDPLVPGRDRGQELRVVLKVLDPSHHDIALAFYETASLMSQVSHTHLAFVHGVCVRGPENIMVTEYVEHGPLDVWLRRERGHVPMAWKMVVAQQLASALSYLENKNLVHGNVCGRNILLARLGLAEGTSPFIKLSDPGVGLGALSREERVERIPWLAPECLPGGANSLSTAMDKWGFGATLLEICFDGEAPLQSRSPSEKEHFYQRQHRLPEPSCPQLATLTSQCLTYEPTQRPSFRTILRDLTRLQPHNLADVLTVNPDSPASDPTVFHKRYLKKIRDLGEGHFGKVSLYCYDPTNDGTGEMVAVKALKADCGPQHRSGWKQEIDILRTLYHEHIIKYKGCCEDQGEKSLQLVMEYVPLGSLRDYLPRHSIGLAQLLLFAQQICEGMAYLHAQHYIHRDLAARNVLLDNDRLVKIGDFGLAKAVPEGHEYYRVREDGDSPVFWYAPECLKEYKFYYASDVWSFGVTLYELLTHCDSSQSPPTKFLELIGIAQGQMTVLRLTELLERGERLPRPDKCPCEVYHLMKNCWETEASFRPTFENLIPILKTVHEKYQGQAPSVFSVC
Description: The IL-12 Induced pSTAT4 assay evaluates the inhibition of IL-12 induced STAT4 phophorylation mediated by Tyk2/JAK2 (heterodimeric complex).

Chain of Tyk2 kinase domain (DH1) (P29597 897-1176): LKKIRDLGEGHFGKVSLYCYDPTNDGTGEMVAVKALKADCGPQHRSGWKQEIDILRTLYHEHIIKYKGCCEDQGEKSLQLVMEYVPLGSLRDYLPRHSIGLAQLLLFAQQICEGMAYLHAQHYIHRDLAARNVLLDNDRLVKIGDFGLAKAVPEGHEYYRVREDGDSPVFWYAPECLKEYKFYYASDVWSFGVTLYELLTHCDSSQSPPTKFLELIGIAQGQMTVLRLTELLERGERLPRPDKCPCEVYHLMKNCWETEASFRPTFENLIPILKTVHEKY

SMILES	inhibition at 10 µM (Tyk2 kinase domain (DH1); 10 μM compound, 10 μM ATP)	Kd [1]	inhibition at 10 µM (JAK2 kinase domain (JH1); 10 μM compound, 10 μM ATP)	IC50 [2]	IC50 [3]	inhibition at 10 µM (Tyk2 kinase domain (DH1); compound at 10 μM, ATP 10 μM)	inhibition at 10 µM (JAK2 kinase domain (JH1); compound at 10 μM, ATP 10 μM)	Tyk2 JH1% Inhibition @ 10 μM (Tyk2 kinase domain (DH1); compound at 10 μM, ATP 10 μM)	JAK2 JH1% Inhibition @ 10 μM (JAK2 kinase domain (JH1); compound at 10 μM, ATP 10 μM)	Tyk2 JH1% Inhibition @ 10 μM (Tyk2 kinase domain (DH1); 10 μM compound, 10 μM ATP)	JAK2 JH1% Inhibition @ 10 μM (JAK2 kinase domain (JH1); 10 μM compound, 10 μM ATP)
CNc1cc(Nc2cccn(-c3ccc(C4CC4)nn3)c2=O)nc2c(C(=O)NC3CCC3)cnn12 [I-240]	–	< 0.2 nM	–	> 2500 nM	< 100 nM	< 50%	< 50%	–	–	–	–
CNc1cc(Nc2cccn([C@H]3CC[C@@](C)(OC)CC3)c2=O)nc2c(C(=O)N[C@H]3C[C@H]3F)cnn12 [I-360]	–	< 0.2 nM	–	> 50000 nM	< 100 nM	< 50%	< 50%	–	–	–	–
CNc1cc(Nc2cccn(-c3ccn(C)n3)c2=O)nc2c(C(=O)NC3CCC3)cnn12 [I-139]	–	< 0.2 nM	–	> 50000 nM	< 100 nM	< 50%	< 50%	–	–	–	–
CNc1cc(Nc2cccnc2OC)nc2c(C(=O)NCC(C)(C)CO)cnn12 [I-346]	–	< 0.2 nM	–	> 2500 nM	< 100 nM	< 50%	< 50%	–	–	–	–
CNc1cc(Nc2cccnc2OC)nc2c(C(=O)NCC3(CO)CC3)cnn12 [I-425]	–	< 0.2 nM	–	> 50000 nM	< 100 nM	< 50%	< 50%	–	–	–	–
CNc1cc(Nc2cc(C)cc(C)c2)nc2c(C(N)=O)cnn12 [I-2, 5-((3,5-dimethylphenyl)amino)-7-(methylamino)pyrazolo[1,5-a]pyrimidine-3-carboxamide]	–	< 0.2 nM	–	> 50000 nM	< 100 nM	< 50%	< 50%	–	–	–	–
CNc1cc(Nc2cccnc2OC(C)C)nc2c(C(=O)N[C@H]3C[C@H]3F)cnn12 [I-147]	–	< 0.2 nM	–	> 50000 nM	< 100 nM	< 50%	< 50%	–	–	–	–
[2H]C([2H])([2H])Oc1ncc(C)cc1Nc1cc(NC)n2ncc(C(=O)NC3CC3)c2n1 [I-258]	–	< 0.2 nM	–	> 50000 nM	< 100 nM	< 50%	< 50%	–	–	–	–
CNc1cc(Nc2cccnc2OC2CC2)nc2c(C(=O)N[C@H]3COC[C@H]3O)cnn12 [I-547]	–	< 0.2 nM	–	> 50000 nM	100 to 500 nM	< 50%	< 50%	–	–	–	–
CNc1cc(Nc2cc(C)cnc2OCCOC)nc2c(C(=O)NC3CC3)cnn12 [I-281]	–	0.2 to 1 nM	–	> 2500 nM	100 to 500 nM	< 50%	< 50%	–	–	–	–
CNc1cc(-c2cn(C(C)C)c3ncccc23)nc2c(C(=O)N[C@@H]3CC[C@@H]3O)cnn12 [I-578]	–	< 0.2 nM	–	> 50000 nM	< 100 nM	< 50%	< 50%	–	–	–	–
CNc1cc(Nc2cccc3ocnc23)nc2c(C(=O)N[C@@H]3CC[C@@H]3O)cnn12 [I-661]	–	< 0.2 nM	–	> 12500 nM	< 100 nM	< 50%	< 50%	–	–	–	–
CNc1cc(Nc2cc(F)cnc2OC2CC2)nc2c(C(=O)N[C@H]3C[C@H]3F)cnn12 [I-275]	–	< 0.2 nM	–	> 50000 nM	< 100 nM	< 50%	< 50%	–	–	–	–
CNc1cc(Nc2cccn([C@@H]3CCC[C@H](OC)C3)c2=O)nc2c(C(=O)NCC(C)(C)CO)cnn12 [I-951]	< 50%	< 0.2 nM	< 50%	> 50000 nM	< 100 nM	–	–	–	–	–	–
CNc1cc(Nc2cc(C)cn(-c3cnn(C)c3)c2=O)nc2c(C(=O)NC3CCC3)cnn12 [I-234]	–	< 0.2 nM	–	> 2500 nM	< 100 nM	< 50%	< 50%	–	–	–	–
CNc1cc(Nc2cccn(-c3cncc(C)c3)c2=O)nc2c(C(=O)NC3CCC3)cnn12 [I-303]	–	< 0.2 nM	–	> 50000 nM	< 100 nM	< 50%	< 50%	–	–	–	–
CNc1cc(Nc2cccnc2OC)nc2c(C(=O)N[C@@H]3CC[C@H]3O)cnn12 (stereo in doubt) [I-363, N-((1R,2R)-2-hydroxycyclobutyl)-5-((2-methoxypyridin-3-yl)amino)-7-(methylamino)pyrazolo[1,5-a]pyrimidine-3-carboxamide]	–	< 0.2 nM	–	> 50000 nM	< 100 nM	< 50%	50 to 70%	–	–	–	–

Further lines, with some results ahead:

inhibition at 10 µM (Tyk2 kinase domain (DH1); 10 μM compound, 10 μM ATP)	Kd [1]	inhibition at 10 µM (JAK2 kinase domain (JH1); 10 μM compound, 10 μM ATP)	IC50 [2]	IC50 [3]	inhibition at 10 µM (Tyk2 kinase domain (DH1); compound at 10 μM, ATP 10 μM)	inhibition at 10 µM (JAK2 kinase domain (JH1); compound at 10 μM, ATP 10 μM)	SMILES	Tyk2 JH1% Inhibition @ 10 μM (Tyk2 kinase domain (DH1); compound at 10 μM, ATP 10 μM)	JAK2 JH1% Inhibition @ 10 μM (JAK2 kinase domain (JH1); compound at 10 μM, ATP 10 μM)	Tyk2 JH1% Inhibition @ 10 μM (Tyk2 kinase domain (DH1); 10 μM compound, 10 μM ATP)	JAK2 JH1% Inhibition @ 10 μM (JAK2 kinase domain (JH1); 10 μM compound, 10 μM ATP)
< 50%	< 0.2 nM	< 50%	> 50000 nM	< 100 nM	–	–	CNc1cc(Nc2cccn([C@H]3CC[C@H](OC)CC3)c2=O)nc2c(C(=O)NC[C@H](C)CO)cnn12 [I-829]	–	–	–	–
–	< 0.2 nM	–	> 12500 nM	< 100 nM	< 50%	< 50%	CNc1cc(Nc2cccn(-c3ccccn3)c2=O)nc2c(C(=O)NC3CC3)cnn12 [I-680]	–	–	–	–
–	< 0.2 nM	–	> 12500 nM	< 100 nM	–	–	CNc1cc(Nc2cccnc2OC)nc2c(C(=O)N[C@H]3CC[C@@H]3O)cnn12 [I-395]	A (percent inhibition at 10 μM lower than 50)	A (percent inhibition at 10 μM lower than 50)	–	–
< 50%	< 0.2 nM	< 50%	> 50000 nM	< 100 nM	–	–	CNc1cc(Nc2cccn(C3CCCCC3)c2=O)nc2c(C(=O)N[C@@H]3CC[C@@H]3O)cnn12 [I-1000]	–	–	–	–
–	< 0.2 nM	–	> 12500 nM	< 100 nM	< 50%	< 50%	[2H]C([2H])([2H])Oc1ncccc1Nc1cc(NC)n2ncc(C(=O)N[C@H]3C[C@H]3F)c2n1 [I-177]	–	–	–	–
–	< 0.2 nM	–	> 50000 nM	< 100 nM	< 50%	< 50%	CNc1cc(Nc2cccn([C@H]3CC[C@](C)(OC)CC3)c2=O)nc2c(C(=O)N[C@@H]3CC[C@@H]3O)cnn12 [I-670, N-(2-hydroxycyclobutyl)-5-((1-((1R,4S)-4-methoxy-4-methylcyclohexyl)-2-oxo-1,2-dihydropyridin-3-yl)amino)-7-(methylamino)pyrazolo[1,5-a]pyrimidine-3-carboxamide]	–	–	–	–
–	< 0.2 nM	–	> 50000 nM	< 100 nM	< 50%	< 50%	CNc1cc(-c2cn(C(C)C)c3ncccc23)nc2c(C(=O)N[C@@H]3C[C@@H]3F)cnn12 (stereo in doubt) [I-225, N-((1R,2S)-2-fluorocyclopropyl)-5-(1-isopropyl-1H-pyrrolo[2,3-b]pyridin-3-yl)-7-(methylamino)pyrazolo[1,5-a]pyrimidine-3-carboxamide]	–	–	–	–
–	< 0.2 nM	–	> 12500 nM	100 to 500 nM	< 50%	< 50%	CNc1cc(Nc2cccn(-c3cccnc3)c2=O)nc2c(C(=O)NC3CC3)cnn12 [I-747]	–	–	–	–
< 50%	< 0.2 nM	< 50%	> 12500 nM	< 100 nM	–	–	CNc1cc(Nc2cc(Cl)cn([C@H]3CCCN(C)C3)c2=O)nc2c(C(=O)NC3CC3)cnn12 [I-820]	–	–	–	–
< 50%	< 0.2 nM	< 50%	> 50000 nM	< 100 nM	–	–	CNc1cc(Nc2cccc(-c3cn(C)nc3F)n2)nc2c(C(=O)N[C@@H]3C[C@@H]3F)cnn12 [I-860]	–	–	–	–
–	< 0.2 nM	–	> 12500 nM	< 100 nM	< 50%	< 50%	CNc1cc(Nc2cccn(-c3ccc(OC)cn3)c2=O)nc2c(C(=O)N[C@H]3C[C@H]3F)cnn12 [I-265]	–	–	–	–
–	< 0.2 nM	–	> 50000 nM	< 100 nM	–	–	CNc1cc(Nc2cccn([C@H]3CC[C@](C)(OC)CC3)c2=O)nc2c(C(=O)N[C@@H]3CC[C@H]3OC)cnn12 [I-959]	–	–	A (percent inhibition at 10 μM lower than 50)	A (percent inhibition at 10 μM lower than 50)
–	0.2 to 1 nM	–	> 12500 nM	< 100 nM	< 50%	< 50%	CNc1cc(Nc2cc(F)cn(-c3ccccn3)c2=O)nc2c(C(=O)NC3CCC3)cnn12 [I-193]	–	–	–	–
–	< 0.2 nM	–	> 50000 nM	< 100 nM	< 50%	< 50%	CNc1cc(Nc2cccnc2OC2CC2)nc2c(C(=O)NCC(C)(C)CO)cnn12 [I-350]	–	–	–	–
–	< 0.2 nM	–	> 50000 nM	< 100 nM	< 50%	< 50%	CNc1cc(Nc2cc(Cl)cn(C3CCCN(C)C3)c2=O)nc2c(C(=O)N[C@@H]3C[C@@H]3F)cnn12 (stereo partly drawn) [I-759]	–	–	–	–
–	< 0.2 nM	–	> 50000 nM	< 100 nM	< 50%	< 50%	CNc1cc(Nc2cccn(-c3ncc(OC)cc3F)c2=O)nc2c(C(=O)N[C@H]3C[C@H]3F)cnn12 [I-673]	–	–	–	–
